US10577363B2, “Substituted piperidine compounds” (EPIZYME, INC., priority 2014, dated 2020)

What was measured:
[1] = molecular target: T1, SMYD3 (Homo sapiens (Human), UniProt Q9H7B4); experiment: SMYD3 biochemical assay (SPA, 3H-SAM methylation of MEKK2 protein substrate); conditions: read-out: SMYD3 Biochem IC50 (μM)*
Outline: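 Full-length native human SMYD3 (E. coli-expressed, tags removed) preincubated with compounds 30 min at room temperature, then reaction started with 3H-SAM and GST-tagged MEKK2 protein in 25 mM Tris-Cl pH 8.0, 1 mM TCEP, 0.005% BSG, 0.005% Tween 20. Quenched with unlabelled SAM (100 uM final); 3H-MEKK2 counted by SPA.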

[2] = molecular target: T1, SMYD3; experiment: SMYD3 cell assay (Trimethyl-MEKK2 In-Cell Western in 293T/17 cells); type: cell-based; conditions: 293T/17 cells; read-out: SMYD3 Cell IC50 (μM)*
Outline: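 In-Cell Western ratio of trimethyl-Lys260 MEKK2 to anti-flag signal; percent inhibition from DMSO and maximum-inhibition controls, IC50 by non-linear regression, triplicates.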

T1 sequence (Q9H7B4 whole entry): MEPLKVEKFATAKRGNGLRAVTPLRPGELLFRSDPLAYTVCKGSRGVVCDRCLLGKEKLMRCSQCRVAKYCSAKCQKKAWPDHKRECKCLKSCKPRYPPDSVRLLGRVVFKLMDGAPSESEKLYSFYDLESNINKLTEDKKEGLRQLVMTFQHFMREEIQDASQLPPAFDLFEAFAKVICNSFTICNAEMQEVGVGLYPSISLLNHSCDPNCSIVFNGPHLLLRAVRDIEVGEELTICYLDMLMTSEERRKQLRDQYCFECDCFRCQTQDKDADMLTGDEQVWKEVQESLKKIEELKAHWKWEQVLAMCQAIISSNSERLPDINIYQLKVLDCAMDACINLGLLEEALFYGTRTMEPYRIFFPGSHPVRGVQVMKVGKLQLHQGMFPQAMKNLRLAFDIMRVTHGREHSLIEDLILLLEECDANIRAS

| SMILES | IC50 [1] [µM] | IC50 [2] [µM] |
| --- | --- | --- |
| CC(=O)Nc1ccc(S(=O)(=O)N2[C@@H]3CC[C@H]2C[C@H](NC(=O)c2cc(C4CC4)on2)C3)cc1 [compound 430, N-((1R,3s,5S)-8-((4-acetamidophenyl)sulfonyl)-8-azabicyclo[3.2.1]octan-3-yl)-5-cyclopropylisoxazole-3-carboxamide] | 3.66 | 4.52 |
| O=C(Nc1ccc(S(=O)(=O)N2[C@@H]3CC[C@H]2C[C@@H](NC(=O)c2cc(C4CC4)on2)C3)cc1)c1ccncc1 [compound 431, 5-cyclopropyl-N-((1R,3r,5S)-8-((4-(isonicotinamido)phenyl)sulfonyl)-8-azabicyclo[3.2.1]octan-3-yl)isoxazole-3-carboxamide] | > 10 | > 10 |
| O=C1Cc2cc(S(=O)(=O)N3[C@@H]4CC[C@H]3C[C@@H](NC(=O)c3cc(C5CC5)on3)C4)c(Cl)cc2N1 [compound 432, N-((1R,3r,5S)-8-((6-chloro-2-oxoindolin-5-yl)sulfonyl)-8-azabicyclo[3.2.1]octan-3-yl)-5-cyclopropylisoxazole-3-carboxamide] | 6.3 | > 10 |
| O=C1Cc2cc(S(=O)(=O)N3[C@@H]4CC[C@H]3C[C@@H](NC(=O)c3cc(C5CC5)on3)C4)ccc2N1 [compound 433, 5-cyclopropyl-N-((1R,3r,5S)-8-((2-oxoindolin-5-yl)sulfonyl)-8-azabicyclo[3.2.1]octan-3-yl)isoxazole-3-carboxamide] | 4.19 | > 10 |
| O=C(N[C@H]1C[C@H]2CC[C@@H](C1)N2S(=O)(=O)c1ccc2[nH]c(=O)[nH]c2c1)c1cc(C2CC2)on1 [compound 434, 5-cyclopropyl-N-((1R,3r,5S)-8-((2-oxo-2,3-dihydro-1H-benzo[d]imidazol-5-yl)sulfonyl)-8-azabicyclo[3.2.1]octan-3-yl)isoxazole-3-carboxamide] | 2.41 | > 10 |
| O=C(N[C@@H]1C[C@H]2CC[C@@H](C1)N2S(=O)(=O)CCN1CCCC1)c1cc(C2CC2)on1 [compound 435, 5-cyclopropyl-N-((1R,3s,5S)-8-((2-(pyrrolidin-1-yl)ethyl)sulfonyl)-8-azabicyclo[3.2.1]octan-3-yl)isoxazole-3-carboxamide] | 2 | 5.59 |
| O=C(N[C@H]1CCN(S(=O)(=O)CCN2CCCC2)[C@@H](Cc2ccccc2)C1)c1cc(C2CC2)on1 [compound 437, N-((2S,4S)-2-benzyl-1-((2-(pyrrolidin-1-yl)ethyl)sulfonyl)piperidin-4-yl)-5-cyclopropylisoxazole-3-carboxamide] | 1 | 4.62 |
| O=C(N[C@@H]1CCN(S(=O)(=O)CCCN2CCOCC2)[C@@H](Cc2ccccc2)C1)c1cc(C2CC2)on1 [compound 438, N-((2S,4R)-2-benzyl-1-((3-morpholinopropyl)sulfonyl)piperidin-4-yl)-5-cyclopropylisoxazole-3-carboxamide] | 9.18 | > 10 |
| O=C(N[C@@H]1CCN(S(=O)(=O)CCCN2CCOCC2)[C@H](Cc2ccccc2)C1)c1cc(C2CC2)on1 [compound 439, N-((2R,4R)-2-benzyl-1-((3-morpholinopropyl)sulfonyl)piperidin-4-yl)-5-cyclopropylisoxazole-3-carboxamide] | > 10 | > 10 |
| O=C(N[C@@H]1C[C@H]2CC[C@@H](C1)N2S(=O)(=O)CCN1CCOCC1)c1cc(C2CC2)on1 [compound 440, 5-cyclopropyl-N-((1R,3s,5S)-8-((2-morpholinoethyl)sulfonyl)-8-azabicyclo[3.2.1]octan-3-yl)isoxazole-3-carboxamide] | > 10 | > 10 |
| O=C(N[C@H]1C[C@H]2CC[C@@H](C1)N2S(=O)(=O)CCN1CCOCC1)c1cc(C2CC2)on1 [compound 441, 5-cyclopropyl-N-((1R,3r,5S)-8-((2-morpholinoethyl)sulfonyl)-8-azabicyclo[3.2.1]octan-3-yl)isoxazole-3-carboxamide] | 1.61 | 3.67 |
| O=C(NC1CC2CCCC(C1)N2S(=O)(=O)CCN1CCCC1)c1cc(C2CC2)on1 (stereo not drawn) [compound 442, 5-cyclopropyl-N-(9-((2-(pyrrolidin-1-yl)ethyl)sulfonyl)-9-azabicyclo[3.3.1]nonan-3-yl)isoxazole-3-carboxamide] | 1.11 | 4.55 |
| O=C(NC1CC2CCCC(C1)N2S(=O)(=O)CCN1CCOCC1)c1cc(C2CC2)on1 (stereo not drawn) [compound 443, 5-cyclopropyl-N-(9-((2-morpholinoethyl)sulfonyl)-9-azabicyclo[3.3.1]nonan-3-yl)isoxazole-3-carboxamide] | > 10 | > 10 |
| CNCCCS(=O)(=O)N1CC[C@H](NC(=O)c2cc(C3CC3)on2)C[C@@H]1C [compound 444, 5-cyclopropyl-N-((2S,4S)-2-methyl-1-((3-(methylamino)propyl)sulfonyl)piperidin-4-yl)isoxazole-3-carboxamide] | 0.0131 | 0.181 |
| CNc1ccc(S(=O)(=O)N2CC[C@H](NC(=O)c3cc(C4CC4)on3)C[C@@H]2C)cn1 [compound 446, 5-cyclopropyl-N-((2S,4S)-2-methyl-1-((6-(methylamino)pyridin-3-yl)sulfonyl)piperidin-4-yl)isoxazole-3-carboxamide] | 0.89 | 2.25 |
| CNc1ccc(S(=O)(=O)N2CC[C@@H](NC(=O)c3cc(C4CC4)on3)C[C@H]2C)cn1 [compound 449, 5-cyclopropyl-N-((2R,4R)-2-methyl-1-((6-(methylamino)pyridin-3-yl)sulfonyl)piperidin-4-yl)isoxazole-3-carboxamide] | > 10 | > 10 |
| CC(C)CNc1ccc(S(=O)(=O)N2CC[C@H](NC(=O)c3cc(C4CC4)on3)C[C@@H]2C)cn1 [compound 450, 5-cyclopropyl-N-((2S,4S)-1-((6-(isobutylamino)pyridin-3-yl)sulfonyl)-2-methylpiperidin-4-yl)isoxazole-3-carboxamide] | 1.1 | 3.48 |
| CC(C)CNc1ccc(S(=O)(=O)N2CC[C@@H](NC(=O)c3cc(C4CC4)on3)C[C@H]2C)cn1 [compound 453, 5-cyclopropyl-N-((2R,4R)-1-((6-(isobutylamino)pyridin-3-yl)sulfonyl)-2-methylpiperidin-4-yl)isoxazole-3-carboxamide] | 7.19 | > 10 |
| CC(C)CN(C)c1ccc(S(=O)(=O)N2CC[C@@H](NC(=O)c3cc(C4CC4)on3)C[C@H]2C)cn1 [compound 454, 5-cyclopropyl-N-((2R,4R)-1-((6-(isobutyl(methyl)amino)pyridin-3-yl)sulfonyl)-2-methylpiperidin-4-yl)isoxazole-3-carboxamide] | > 10 | > 10 |
| COCCN(C)c1ccc(S(=O)(=O)N2CC[C@@H](NC(=O)c3cc(C4CC4)on3)C[C@H]2C)cn1 [compound 455, 5-cyclopropyl-N-((2R,4R)-1-((6-((2-methoxyethyl)(methyl)amino)pyridin-3-yl)sulfonyl)-2-methylpiperidin-4-yl)isoxazole-3-carboxamide] | > 10 | > 10 |
| COCCNc1ccc(S(=O)(=O)N2CC[C@@H](NC(=O)c3cc(C4CC4)on3)C[C@H]2C)cn1 [compound 457, 5-cyclopropyl-N-((2R,4R)-1-((6-((2-methoxyethyl)amino)pyridin-3-yl)sulfonyl)-2-methylpiperidin-4-yl)isoxazole-3-carboxamide] | > 10 | > 10 |
